Data from patent US8546421B1, “Oncogenic-RAS-signal dependent lethal compounds” (The Trustees of Columbia University in the City of New York, priority 2007, dated 2013).
“And” between values parts separate entries of the source, which are not always exact repeats. Equal entries are not always repeated. Structures can show the parent of a compound that is named as a salt.

Experiments:
[1] = tested on: BJeH, BJeHLT, BJeLR and DRD cells; test: Cell growth inhibition by stereoisomers of Compound 27; conditions: for cell growth inhibition (in words): BJeH, BJeHLT, BJeLR, DRD cells
[2] = tested on: BJ cell system (BJ-TERT, BJ-TERT/LT/ST, BJ-TERT/LT/ST/RAS^V12, DRD cells); test: Alamar blue potency and selectivity in the engineered BJ cell system; conditions: for growth inhibitory activity and selectivity in the BJ cell system (in words): alamar blue, structural analogs and hits; for activity of analogs of Compound 27, percent growth inhibition (in words): cell viability assay, SAR of Compound 27
Experimental: Empty “step-daughter plates” were filled with 50 μL DMEM, except for columns 3 and 13, where 100 μL of hit compound solution were cherry-picked from daughter plates. After compound transfer, 2-fold dilution series across columns 3 through 12 and columns 13 through 22 was made by transferring 50 μL of compound solution to the next column successively (10-point dilution series), with extensive mixing. Hit-picking and 2-fold dilution series were carried out using Biomek FX Span-8 module (Beckman Coulter). Assay plates were prepared by seeding 1,000 BJ-TERT, BJ-TERT/LT/ST, and BJ-TERT/LT/ST/RAS^V12 cells per well in 36 μL growth medium. Cells in assay plates were treated with compounds from step-daughter plates by transferring 4 μL. The final concentration of the compound was 5.33 μg/mL to 0.01 μg/mL in this 10-point, 2-fold dilution series. Assay plates were returned to the culture incubator and maintained for 48 hours before adding alamar blue.
Fresh daughter plates were made from the mother plate and cherry-picked hits from the first round, 2-fold dilution series experiment as described above. Assay plates were prepared by seeding 1,000 BJ-TERT, BJ-TERT/LT/ST, BJ-TERT/LT/ST/RAS^V12 or BJ-TERT/p53DD/CDK4/cyclinD1/ST/RAS^V12 (DRD) cells per well in 32 μL growth media. Cells in the assay plates were treated with compounds from the step-daughter plate by transferring 8 μL solution. The final concentration of the compound was 10.66 μg/mL to 0.02 μg/mL in a 10-point, 2-fold dilution series manner. Assay plates were returned to the culture incubator and maintained for 48 hours before adding alamar blue.
Cells were seeded in 384-well assay plates, treated with candidate compounds, and incubated in the culture incubator in 40 μL culture volume per well. […] Plates were incubated further for 16 hours to allow reduction of alamar blue, which results in the generation of red fluorescence. The fluorescence intensity was determined using a Victor 3 plate reader (Perkin Elmer) with a 535 nm excitation filter and a 590 nm emission filter.
In the subsequent two-fold dilution series testing, selectivity was calculated as the ratio of GI50 values in BJ-TERT/LT/ST and BJ-TERT/LT/ST/RAS^V12 cells. […] DRD cells are also derived from BJ primary cells and the effects of mutations in both lines should be similar.

[3] = tested on: cellular iron in BJ-TERT/LT/ST/RAS^V12 cells; test: Cellular iron level by flow cytometry with Phen Green SK; type: cell-based, human; conditions: 24 hours treatment
Experimental: Cells were seeded in 6-well plates (200,000 cells per well) in BJ medium. The next day, the cell monolayer was washed with phosphate buffered saline (“PBS”) twice and stained with 5 μM of Phen Green SK, diacetate (Molecular Probe, cat.#P14313) in PBS by incubating the plate for 15 minutes in a culture incubator. Cells were released with trypsin/EDTA, harvested in 2 mL PBS, and centrifuged at 1,000 rpm for 5 min. The cell pellet was re-suspended in 1 mL of PBS, the cell suspension was transferred to disposable FACS tubes, and the fluorescence profile of the sample was monitored using a FACSCalibur system (BD Biosciences).

[4] = tested on: ACHN; test: NCI60 anti-cancer screening
[5] = tested on: U-2 OS; test: Alamar Blue assay, additional cell lines; type: cell-based; conditions: Osteosarcoma
Source text: (§1) The results of this additional testing are summarized in Tables 7-10 (no additional cell lines were identified as sensitive for Compound 3). […] The tumor type, cell line, maximum percentage inhibition, the concentration of compound required to inhibit cell growth by 50%, and RAS mutation (if any) are also summarized.

[6] = tested on: SK-UT; test: Alamar Blue assay, additional cell lines; type: cell-based; conditions: Uterine, mixed mesodermal tumor
Source text: as §1

[7] = tested on: SK-LMS-1; test: Alamar Blue assay, additional cell lines; type: cell-based; conditions: Leimyosarcoma, vulva
Source text: as §1

[8] = tested on: TC71; test: Alamar Blue assay, additional cell lines; type: cell-based
Source text: as §1

[9] = tested on: MES-CA; test: Alamar Blue assay, additional cell lines; type: cell-based; conditions: Uterine sarcoma
Source text: as §1

[10] = tested on: TC32; test: Alamar Blue assay, additional cell lines; type: cell-based
Source text: as §1

[11] = tested on: HeLa; test: Alamar Blue assay, additional cell lines; type: cell-based; conditions: Cervical carcinoma
Source text: as §1

[12] = tested on: U973; test: Alamar Blue assay, additional cell lines; type: cell-based
Source text: as §1

[13] = tested on: SK-ES-1; test: Alamar Blue assay, additional cell lines; type: cell-based; conditions: anaplastic osteosarcoma
Source text: as §1

[14] = tested on: UO-31; test: NCI60 anti-cancer screening
[15] = tested on: 786-0; test: NCI60 anti-cancer screening
[16] = tested on: HL-60(TB); conditions: Leukemia
[17] = tested on: K-562; test: NCI60 anti-cancer screening
[18] = tested on: HL-60(TB); test: cells; conditions: Homo sapiens
[19] = tested on: CAKI-1; test: NCI60 anti-cancer screening; conditions: Homo sapiens
[20] = tested on: Calu-1; test: Alamar Blue assay, additional cell lines; type: cell-based, human; conditions: Calu-1, Non-small cell lung carcinoma, Alamar Blue
Source text: as §1

[21] = tested on: BJELR (Foreskin fibroblasts w/ TERT, LT, ST, RAS); test: Alamar Blue assay, additional cell lines; type: cell-based, human
Source text: as §1

[22] = tested on: HT1080; test: Alamar Blue assay, additional cell lines; type: cell-based, human
Source text: as §1

[23] = tested on: RXF393; test: NCI60 anti-cancer screening
[24] = tested on: Calu-1 cells expressing shRNAs targeting HRAS, NRAS or KRAS; test: Drug sensitivity after shRNA knockdown of RAS; type: cell-based, human; conditions: alamar blue
Experimental: On day one, 3×10^5 Calu-1 cells or 2×10^5 HT1080 cells were seeded in 10-cm dishes; on day 2, frozen virus stock was thawed at 37° C., hexadimethrine bromide (polybrene) (Sigma, cat.#H9268) was added to the virus solution at a final concentration of 8 μg/mL and growth media from cell culture was replaced with the virus/polybrene mixture. The culture was returned to the tissue culture incubator for 2 hours, with rocking of the dishes every 30 min in order to prevent drying. After 2 h, 10 mL growth medium was added, the culture was incubated for 2 days, and cells stably expressing shRNA were selected by adding puromycin (Sigma, cat.#P9620) at a final concentration of 1.5 μg/mL.
On the day of experiment, assay plates were prepared by seeding 3,000 HT1080, HT1080-pLKO, HT1080-TfR1 KD, Calu-1, Calu-1-pLKO, or Calu-1-509 cells per well in 36 μL of growth media to black, clear bottom 384-well plates. Also, assay plates were prepared by seeding 1,500 shRNA infected HT1080 or Calu-1 cells per well. Cells in assay plates were treated with each lethal compound in a 2-fold dilution series by transferring 4 μL solution from a 10× lethal plate of Erastin, Compound 3, Compound 27, or Compound 36. […] Percent growth inhibition (% GI) was calculated using fluorescence intensity values.

[25] = tested on: PARP-1 cleavage in BJ-TERT/LT/ST/RAS^V12 cells; test: Western blot of PARP-1 cleavage upon compound treatment; type: cell-based, human; conditions: Western blot with anti-PARP-1 antibody
Experimental: 2×10^6 BJ-TERT/LT/ST/RAS^V12 cells were seeded in 10 cm dishes and treated with 1 μM staurosporine, 10 μg/mL erastin, 20 μg/mL Compound 3, and 1 μg/mL Compound 27 for 16 h. Both dying cells and live cells in each 10 cm dish were harvested and collected in the same 15 mL tubes by centrifuging cell suspension at 1,000 rpm for 5 min. Cell pellets were washed three times with PBS and cells were lysed in 200 μL of denaturing lysis buffer (50 mM HEPES KOH [pH 7.4], 40 mM NaCl, 2 mM EDTA, 1.5 mM Na3VO4, 50 mM NaF, 10 mM sodium pyrophosphate, 10 mM sodium β-glycerophosphate, 0.5% Triton X-100, and protease inhibitor tablet [Roche, cat.#11836170001]). Protein content was quantified using a Bio-Rad protein assay reagent (Bio-Rad, cat.#500-00006). Equal amounts of protein were resolved on SDS-polyacrylamide gels. The electrophoresed proteins were transblotted onto a PVDF membrane, blocked with 5% milk, and incubated with rabbit primary antibodies specific to: PARP (Santa Cruz, cat.#sc-7150), cleaved caspase-3 (Cell Signaling Technology, cat.#9661) overnight at 4° C. The membrane was then incubated in IRDye 800 goat anti-rabbit antibody (Li-cor Bioscience cat.#926-32211) at 1:3,000 dilutions for 45 min at room temperature. After washing off the unbound antibodies, membranes were scanned using the Odyssey™ Imaging System (Li-cor Bioscience).

Compound: COC(=O)c1ccc([C@@H]2c3[nH]c4ccccc4c3C[C@H](C(=O)OC)N2C(=O)CCl)cc1 [1R,3R Compound 27]
- cell growth inhibition (in words) [1]: no appreciable growth inhibition

Compound: COC(=O)c1ccc([C@H]2c3[nH]c4ccccc4c3C[C@H](C(=O)OC)N2C(=O)CCl)cc1 [1S,3R Compound 27]
- cell growth inhibition (in words) [1]: strong cell growth inhibition in two cell lines
- EC50 ([1]; Homo sapiens): ~0.005 µg/mL and ~10 nM
- selective lethality (in words) ([1]; mutant HRAS BJ tumor cell lines versus isogenic cell lines lacking oncogenic HRAS): selective lethality towards BJ tumor cell lines containing mutant HRAS

Compound: COC(=O)c1ccc([C@@H]2c3[nH]c4ccccc4c3C[C@@H](C(=O)OC)N2C(=O)CCl)cc1 [(1R,3S) Compound 27]
- cell growth inhibition (in words) [1]: no appreciable growth inhibition

Compound: COC(=O)c1ccc([C@H]2c3[nH]c4ccccc4c3C[C@@H](C(=O)OC)N2C(=O)CCl)cc1 [(1S,3S) Compound 27]
- cell growth inhibition (in words) [1]: no appreciable growth inhibition

Compound: COC(=O)C1=C(C)NC2=C(C(=O)CC(c3ccc(Cl)cc3)C2)C1c1ccccc1F (stereo not shown) [Compound 5]
- growth inhibitory activity and selectivity in the BJ cell system (in words) [2]: varied potency and selectivity

Compound: COC(=O)C1Cc2c([nH]c3ccccc23)C(C)(C)N1C(=O)CCl (stereo not shown) [Compound 28]
- growth inhibitory activity and selectivity in the BJ cell system (in words) [2]: virtually the same activity and selectivity

Compound: O=C(NN=Cc1c(O)ccc2ccccc12)c1ccncc1 [Compound 311]
- change of cellular iron level (PGSK fluorescence) [3]: induced a peak shift in the fluorescence profile

Compound: CC(=O)N(O)CCCCCNC(=O)CCC(=O)N(O)CCCCCNC(=O)CCC(=O)N(O)CCCCCN [DFOM, deferoxamine mesylate]
- change of cellular iron level (PGSK fluorescence) [3]: induced a peak shift in the fluorescence profile

Compound: CCOc1ccccc1-n1c(C(C)N2CCN(C(=O)COc3ccc(Cl)cc3)CC2)nc2ccccc2c1=O (stereo not shown) [Erastin, reference compound]
- GI50 ([4]; Homo sapiens): 979 nM
- CC50 ([4]; Homo sapiens, read-out: LC 50%): 6.3 µM
- GI 100% ([4]; Renal Cancer): 2.5 µM
- GI50 ([5]; Homo sapiens, U2OS): 6 µM
- Maximum Inhibition % [5]: 96%
- GI50 [6]: 4 µM
- Maximum Inhibition % [6]: 73%
- GI50 ([7]; Homo sapiens): 6 µM
- Maximum Inhibition % [7]: 100%
- Maximum Inhibition % ([8]; Ewing sarcoma): 92%
- GI50 ([8]; TC-71, Ewing sarcoma): 10 µM
- GI50 [9]: 3000 nM
- Maximum Inhibition % [9]: 100%
- GI50 ([10]; Homo sapiens, TC-32, Peripheral neuroepithelioma): 8 µM
- Maximum Inhibition % ([10]; Peripheral neuroepithelioma): 88%
- Maximum Inhibition % [11]: 94%
- GI50 ([11]; Homo sapiens): 600 nM
- Maximum Inhibition % ([12]; Acute myelogenous leukemia): 73%
- GI50 ([12]; U-973, Acute myelogenous leukemia): 10 µM
- Maximum Inhibition % ([13]; Ewing sarcoma): 98%
- GI50 ([13]; Homo sapiens, SK-ES1, Ewing sarcoma): 7 µM
- GI50 ([14]; Homo sapiens, UO-31): 373 nM
- CC50 ([14]; Homo sapiens, UO-31, read-out: LC 50%): > 10 µM
- GI 100% ([14]; UO-31, Renal Cancer): 1.63 µM
- GI 100% ([15]; 786-0, Renal Cancer): 4.12 µM
- GI50 ([15]; Homo sapiens, 786-0): 2030 nM
- CC50 ([15]; Homo sapiens, 786-0, read-out: LC 50%): 8.36 µM
- GI 100% [16]: >10 µM
- GI50 ([17]; Homo sapiens, K562): 3.39 µM
- CC50 ([17]; Homo sapiens, K562, read-out: LC 50%): > 10 µM
- GI 100% ([17]; K-562, Leukemia): >10 µM
- GI50 ([18]; HL-60): 2260 nM
- CC50 ([18]; HL-60, read-out: LC 50%): > 10 µM
- GI50 ([19]; CAKI-1): 2150 nM
- CC50 ([19]; CAKI-1, read-out: LC 50%): > 10 µM
- Maximum Inhibition % [20]: 100%
- GI50 ([20]; Homo sapiens): 6 µM
- Maximum Inhibition % [21]: 100%
- GI50 ([21]; Homo sapiens): 6 µM
- Maximum Inhibition % ([22]; Fibrosarcoma): 98%
- GI50 ([22]; Homo sapiens, HT-1080, Fibrosarcoma): 2000 nM
- GI50 ([23]; Homo sapiens, RXF 393): 2160 nM
- CC50 ([23]; Homo sapiens, RXF 393, read-out: LC 50%): > 10 µM
- GI 100% ([23]; RXF393, Renal Cancer): 7.2 µM

Compound: C=CC(=O)N1C(C(=O)OC)Cc2c([nH]c3ccccc23)C1c1ccc(C(=O)OC)cc1 (stereo not shown) [acryl analog]
- activity of analogs of Compound 27, percent growth inhibition (in words) [2]: insufficiently active

Compound: COC(=O)C1Cc2c([nH]c3ccccc23)C(c2ccc(NC(=O)CCCCCNC(=O)CCCCC3SCC4NC(=O)NC43)cc2)N1C(=O)CCl (stereo not shown) [biotinylated analog of Compound 27]
- activity of analogs of Compound 27, percent growth inhibition (in words) [2]: not sufficiently active

Compound: CN[C@@H]1C[C@H]2O[C@@](C)([C@@H]1OC)n1c3ccccc3c3c4c(c5c6ccccc6n2c5c31)C(=O)NC4 [staurosporine, reference compound]
- sensitivity of Calu-1 cells after RAS shRNA compared with parental cells [24]: loss of sensitivity to staurosporine was not observed
- PARP-1 cleavage / type of cell death [25]: showed PARP-1 cleavage
